Measured values: ChEMBL document CHEMBL1201862, “PubChem BioAssay data set” (2004)
Calls of active or inactive are those of the source.

Legend:
[1] = Luminescence Cell-Based Dose Retest to Confirm Inhibitors of Cancer Stem Cells. [Related pubchem assays (depositor defined):AID2717, AID2721]; assay type: functional; conditions: Homo sapiens
[2] = target: T1, Rac GTPase-activating protein 1 (Homo sapiens, UniProt Q9H0H5); test: MgcRacGAP GTPase-activating activity inhibitors, confirmation, biochemical, ADP Hunter fluorescence, primary and confirmatory (AID 624330); assay type: functional
T1 sequence (Q9H0H5 whole entry): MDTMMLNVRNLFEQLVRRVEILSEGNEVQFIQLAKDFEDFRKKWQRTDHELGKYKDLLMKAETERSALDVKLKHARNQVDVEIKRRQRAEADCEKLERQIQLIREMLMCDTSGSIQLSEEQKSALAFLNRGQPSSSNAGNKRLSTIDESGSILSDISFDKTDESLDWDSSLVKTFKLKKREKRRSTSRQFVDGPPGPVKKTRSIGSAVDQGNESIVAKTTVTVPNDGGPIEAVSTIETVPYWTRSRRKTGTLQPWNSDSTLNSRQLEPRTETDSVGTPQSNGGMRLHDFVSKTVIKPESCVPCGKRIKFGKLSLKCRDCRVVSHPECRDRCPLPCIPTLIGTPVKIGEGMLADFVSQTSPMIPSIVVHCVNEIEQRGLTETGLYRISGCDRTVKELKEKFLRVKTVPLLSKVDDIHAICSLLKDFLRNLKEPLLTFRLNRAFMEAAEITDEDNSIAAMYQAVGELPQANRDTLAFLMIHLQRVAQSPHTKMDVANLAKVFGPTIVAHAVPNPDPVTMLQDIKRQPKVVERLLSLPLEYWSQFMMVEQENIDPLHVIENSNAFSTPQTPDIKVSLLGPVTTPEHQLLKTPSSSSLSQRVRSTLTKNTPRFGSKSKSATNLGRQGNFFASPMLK

[3] = target: Cytochrome P450 3A4 (Homo sapiens, UniProt P08684);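 note: CYP3A4 tested as one member of a cytochrome P450 panel screen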
[4] = target: Cytochrome P450 2C9 (Homo sapiens, UniProt P11712)
[5] = target: T2, RNA-binding protein pos-1 (Caenorhabditis elegans, UniProt G5EF15); test: inhibitors of POS-1/mex-3 RNA binding, dose response, biochemical, fluorescence polarization (AID 1964);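 note: purified POS-1 fused to maltose binding protein made in E. coli; potency of compounds blocking POS-1 binding to fluorescent RNA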
T2 sequence (G5EF15 whole entry): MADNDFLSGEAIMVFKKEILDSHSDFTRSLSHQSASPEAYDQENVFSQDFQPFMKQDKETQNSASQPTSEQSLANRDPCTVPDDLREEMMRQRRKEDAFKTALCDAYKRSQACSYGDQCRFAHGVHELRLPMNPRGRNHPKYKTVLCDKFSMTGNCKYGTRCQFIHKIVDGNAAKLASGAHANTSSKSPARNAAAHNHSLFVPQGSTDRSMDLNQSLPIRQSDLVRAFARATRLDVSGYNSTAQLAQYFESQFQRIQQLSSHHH

[6] = target: T3, Zinc finger protein mex-5 (Caenorhabditis elegans, UniProt Q9XUB2); test: MEX-5/TCR-2 RNA interaction inhibitors, dose response, biochemical, C. elegans, fluorescence polarization (AID 1960)
T3 sequence (Q9XUB2 whole entry): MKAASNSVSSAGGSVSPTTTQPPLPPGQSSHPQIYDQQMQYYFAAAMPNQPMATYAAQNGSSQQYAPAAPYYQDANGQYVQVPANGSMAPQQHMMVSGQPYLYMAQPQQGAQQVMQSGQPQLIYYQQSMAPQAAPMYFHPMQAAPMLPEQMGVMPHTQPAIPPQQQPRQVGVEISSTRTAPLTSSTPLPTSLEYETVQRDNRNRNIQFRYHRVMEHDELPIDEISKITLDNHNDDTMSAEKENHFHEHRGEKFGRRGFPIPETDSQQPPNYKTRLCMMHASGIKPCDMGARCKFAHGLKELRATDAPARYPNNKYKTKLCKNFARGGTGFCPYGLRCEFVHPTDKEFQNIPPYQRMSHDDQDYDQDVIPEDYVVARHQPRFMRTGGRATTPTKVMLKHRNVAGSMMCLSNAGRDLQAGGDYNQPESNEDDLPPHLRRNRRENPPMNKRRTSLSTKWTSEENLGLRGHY

[7] = target: T4, Cytochrome P450 1A2 (Homo sapiens, UniProt P05177);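 note: PubChem cytochrome P450 panel assay, CYP1A2 panel member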
T4 sequence (P05177 whole entry): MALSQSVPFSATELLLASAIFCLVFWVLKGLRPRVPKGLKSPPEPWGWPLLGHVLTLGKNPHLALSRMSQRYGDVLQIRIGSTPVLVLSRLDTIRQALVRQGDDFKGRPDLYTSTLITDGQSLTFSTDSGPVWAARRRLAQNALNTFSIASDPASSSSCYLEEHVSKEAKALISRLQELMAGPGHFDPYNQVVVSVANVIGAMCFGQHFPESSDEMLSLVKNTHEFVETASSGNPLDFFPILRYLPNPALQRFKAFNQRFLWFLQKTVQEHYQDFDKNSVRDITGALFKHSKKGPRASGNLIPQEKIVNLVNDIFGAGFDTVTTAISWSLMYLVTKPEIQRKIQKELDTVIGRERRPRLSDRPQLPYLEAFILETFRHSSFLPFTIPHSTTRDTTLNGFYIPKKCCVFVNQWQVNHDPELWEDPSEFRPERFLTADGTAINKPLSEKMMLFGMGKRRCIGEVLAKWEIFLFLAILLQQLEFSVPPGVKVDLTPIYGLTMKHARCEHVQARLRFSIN

[8] = target: Cytochrome P450 2C19 (Homo sapiens, UniProt P33261); test: Cytochrome panel assay with activity outcomes. Panel member name: p450-cyp2c19 Compounds with AC50 equal or less than 10 uM are considered active; assay type: functional; conditions: read-out: AC50
[9] = tested on: H4; test: Luminescence Cell-Based Dose Response HTS to Identify Activators of 5'UTR Stem-Loop Driven Prion Protein mRNA Translation in H4 Neuroglioblastoma Cells. [Related pubchem assays: 1829 (Project Summary), 1814 (Primary HTS)]; assay type: functional; conditions: Homo sapiens
[10] = Luminescence Cell-Based Dose Response HTS to Identify Activators of Luciferase Translation or Activity in H4 […] Cells. [Related pubchem assays: 1829 (Project Summary), 1814 (Primary HTS)]; assay type: functional
[11] = Luminescence Cell-Based Dose Confirmation HTS to Identify Activators of 5'UTR Stem-Loop Driven Alpha-Synuclein mRNA Translation in H4 Neuroglioblastoma Cells. [Related pubchem assays: 1829 (Project Summary), 1814 (Primary HTS)]; assay type: functional
[12] = target: T5, Heat shock factor protein 1 (Mus musculus, UniProt P38532); test: inhibition of MG132-induced HSE-luciferase signal, confirmation, cell-based, NIH3T3, luminescence, dose retest (AID 2382); assay type: functional;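 note: NIH3T3 fibroblasts with HSF1-driven luciferase reporter stressed by proteasome inhibitor MG132; luminescence from HSF1-driven luciferase expression after 8 hours of MG132 stress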
T5 sequence (P38532 whole entry): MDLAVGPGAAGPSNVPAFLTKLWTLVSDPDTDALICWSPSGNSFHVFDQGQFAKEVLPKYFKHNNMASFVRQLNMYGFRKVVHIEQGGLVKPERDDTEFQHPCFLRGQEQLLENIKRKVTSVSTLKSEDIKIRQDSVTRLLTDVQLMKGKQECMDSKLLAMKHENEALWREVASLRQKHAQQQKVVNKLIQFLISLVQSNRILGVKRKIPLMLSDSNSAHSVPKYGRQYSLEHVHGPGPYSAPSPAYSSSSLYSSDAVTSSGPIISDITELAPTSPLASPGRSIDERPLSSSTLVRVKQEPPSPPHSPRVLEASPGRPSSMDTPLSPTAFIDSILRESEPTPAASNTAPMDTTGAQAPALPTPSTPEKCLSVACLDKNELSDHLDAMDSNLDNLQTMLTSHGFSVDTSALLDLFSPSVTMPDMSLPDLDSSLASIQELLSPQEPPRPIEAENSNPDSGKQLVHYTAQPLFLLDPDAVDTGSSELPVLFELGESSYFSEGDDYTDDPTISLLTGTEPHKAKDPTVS

Cytochrome P450 2C9, sequence (P11712 whole entry, the tested form may be a part): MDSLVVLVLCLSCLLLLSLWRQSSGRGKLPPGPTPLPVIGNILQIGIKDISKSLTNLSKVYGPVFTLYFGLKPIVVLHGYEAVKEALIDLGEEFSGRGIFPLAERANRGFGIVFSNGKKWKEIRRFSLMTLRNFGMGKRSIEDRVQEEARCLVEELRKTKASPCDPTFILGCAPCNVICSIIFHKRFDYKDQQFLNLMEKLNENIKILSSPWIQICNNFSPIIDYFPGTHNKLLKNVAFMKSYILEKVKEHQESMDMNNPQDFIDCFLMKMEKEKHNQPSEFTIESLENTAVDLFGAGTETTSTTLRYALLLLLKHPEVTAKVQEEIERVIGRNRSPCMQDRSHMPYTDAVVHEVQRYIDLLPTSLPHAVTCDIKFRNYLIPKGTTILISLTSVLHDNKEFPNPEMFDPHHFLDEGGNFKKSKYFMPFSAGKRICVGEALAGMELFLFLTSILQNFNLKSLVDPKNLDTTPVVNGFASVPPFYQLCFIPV
Cytochrome P450 2C19, sequence (P33261 whole entry): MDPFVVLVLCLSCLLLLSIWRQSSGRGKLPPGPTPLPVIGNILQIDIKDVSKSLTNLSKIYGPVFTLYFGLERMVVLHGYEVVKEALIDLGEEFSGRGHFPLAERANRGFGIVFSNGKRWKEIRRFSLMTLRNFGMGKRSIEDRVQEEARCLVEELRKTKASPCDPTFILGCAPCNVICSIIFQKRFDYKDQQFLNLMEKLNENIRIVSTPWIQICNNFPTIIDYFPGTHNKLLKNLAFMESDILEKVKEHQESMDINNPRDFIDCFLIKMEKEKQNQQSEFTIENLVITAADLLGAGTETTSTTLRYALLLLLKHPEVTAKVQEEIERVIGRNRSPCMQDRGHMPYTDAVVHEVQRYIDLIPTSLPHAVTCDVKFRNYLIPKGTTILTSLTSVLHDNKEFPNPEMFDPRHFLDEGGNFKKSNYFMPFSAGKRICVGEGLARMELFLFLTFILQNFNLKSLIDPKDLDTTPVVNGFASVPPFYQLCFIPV
Cytochrome P450 3A4, sequence (P08684 whole entry): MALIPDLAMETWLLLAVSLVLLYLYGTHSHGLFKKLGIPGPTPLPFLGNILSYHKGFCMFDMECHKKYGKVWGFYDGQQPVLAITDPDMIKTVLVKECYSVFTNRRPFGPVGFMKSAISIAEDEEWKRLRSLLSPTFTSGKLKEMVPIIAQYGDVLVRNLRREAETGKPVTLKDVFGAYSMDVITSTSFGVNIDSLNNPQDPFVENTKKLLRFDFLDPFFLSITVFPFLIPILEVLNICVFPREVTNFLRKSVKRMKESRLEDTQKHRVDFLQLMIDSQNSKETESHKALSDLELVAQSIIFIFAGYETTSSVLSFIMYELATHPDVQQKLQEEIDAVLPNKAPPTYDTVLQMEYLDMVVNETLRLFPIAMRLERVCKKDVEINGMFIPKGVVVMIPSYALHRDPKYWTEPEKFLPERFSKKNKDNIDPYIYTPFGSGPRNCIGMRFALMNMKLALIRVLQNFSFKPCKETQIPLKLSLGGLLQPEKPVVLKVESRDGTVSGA

SMILES: COc1ccc(Cn2c3ccc(OC)cc3c3nc4ccccc4nc32)cc1
- AC50 [1]: 13 µM (active)

SMILES: O=C(O)CCCn1c(=S)[nH]c2c(sc3ccc([N+](=O)[O-])cc32)c1=O
- IC50 [2]: 40.3 µM (active)

SMILES: COc1ccc(-c2csc(NC(=O)Cn3nc(C)cc3C)n2)cc1
- AC50 [3]: 15.8 µM (inconclusive)
- AC50 [4]: 0.794 µM (inconclusive)

SMILES: COc1ccc(N/C=C2/C(=O)N(c3cccc(C)n3)C(=O)c3ccccc32)cc1
- EC50 [5]: > 300 µM (not active)
- EC50 [6]: > 300 µM (not active)

SMILES: O=c1c(-c2cccs2)nc2cnc(N3CCOCC3)nc2n1Cc1ccc(F)cc1
- AC50 [3]: 2.51 µM (inconclusive)
- AC50 [7]: 20 µM (inconclusive)

SMILES: N#Cc1ccc(-c2ccc(F)cc2)nc1Sc1ccccc1
- AC50 [3]: 12.6 µM (inconclusive)
- AC50 [4]: 5.01 µM (inconclusive)
- AC50 [8]: 5.01 µM (inconclusive)

SMILES: O=C(c1cccc(Cl)c1)N1CCN(Cc2ccncc2)CC1
- IC50 [2]: 99.7 µM (active)

SMILES: C/C(NCCN1CCCCC1)=C1/C(=O)NC(=O)N(c2ccc(Cl)cc2)C1=O
- EC50 [5]: > 300 µM (not active)
- EC50 [6]: > 300 µM (not active)

SMILES: COC(=O)CCCC1=CC2=CC(=O)C(C)(OC(=O)c3cnc4ccccc4n3)C(=O)C2=CO1 (stereo not drawn)
- EC50 [5]: 12.7 µM (active)
- EC50 [6]: 12.3 µM (active)

SMILES: O=c1c(-c2cccc(F)c2)nc2cncnc2n1C1CC1
- AC50 [3]: 12.6 µM (inconclusive)

SMILES: COCCNCC(=O)Nc1ccc(C)c(S(=O)(=O)N2CCCCC2)c1
- IC50 [2]: 132 µM (active)

SMILES: CC(C)c1ccc(N2C(=O)CC(Sc3nc4ccccc4o3)C2=O)cc1 (stereo not drawn)
- AC50 [3]: 39.8 µM (inconclusive)
- AC50 [7]: 5.01 µM (inconclusive)

SMILES: CC(=O)c1ccc2c(c1)C1C=CCC1C(c1cc3c(cc1Br)OCO3)N2 (stereo not drawn)
- EC50 [5]: > 300 µM (not active)
- EC50 [6]: > 300 µM (not active)

SMILES: CCNc1ncc2nc(-c3ccc(OC)cc3)c(=O)n(-c3ccc(OC)cc3)c2n1
- AC50 [3]: 12.6 µM (inconclusive)

SMILES: Cc1cc(C)cc(N2C(=O)/C(=C\c3ccc(N4CCN(C)CC4)o3)C(=O)NC2=S)c1
- EC50 [5]: > 300 µM (inconclusive)
- EC50 [6]: > 300 µM (inconclusive)

SMILES: COCCNC(=O)CSc1nc2cc(OC)c(OC)cc2c(=O)n1Cc1ccco1
- AC50 [3]: 3.55 µM (inconclusive)
- AC50 [8]: 20 µM (inconclusive)

SMILES: N#CCCn1c(=O)c(-c2ccc(F)cc2)nc2cnc(N3CCNCC3)nc21
- AC50 [3]: 25.1 µM (inconclusive)

SMILES: CS(=O)(=O)N1CCC[C@@]2(CCN(C(=O)Nc3cccc(F)c3)C2)C1
- AC50 [3]: 12.6 µM (inconclusive)

SMILES: CCOC(=O)N1CCN(/C=C(\C#N)c2nc3ccccc3s2)CC1
- EC50 [9]: 37.5 µM (active)
- EC50 [5]: > 300 µM (not active)
- EC50 [10]: 14.7 µM (active)
- EC50 [11]: 38 µM (active)
- EC50 [6]: > 300 µM (not active)

SMILES: c1cc(CNc2ccc3c(c2)OCCO3)ccn1
- EC50 [12]: 6.77 µM (active)
- IC50 [2]: 108 µM (active)

SMILES: COCC1CCN(C(=O)CC2C(=O)NCCN2Cc2cccc(Oc3ccccc3)c2)CC1 (stereo not drawn)
- EC50 [5]: > 300 µM (not active)
- EC50 [6]: > 300 µM (not active)

SMILES: COc1ccc(O[C@H]2C=C[C@@H](c3ccccc3)O[C@H]2CO/N=C(/C)CCC(=O)OC[C@@H]2O[C@H](C#Cc3ccccc3)C=C[C@@H]2Oc2ccc(C)cc2)cc1
- AC50 [3]: 3.16 µM (inconclusive)
- AC50 [8]: 0.126 µM (inconclusive)

SMILES: CCN(CC)c1ccc(N/C=C2/C(=O)NC(=O)N(c3ccccc3)C2=O)cc1
- EC50 [5]: > 300 µM (not active)
- EC50 [6]: > 300 µM (not active)

SMILES: CCc1ccc2nc3sc(C(=O)O)cc3cc2c1
- IC50 [2]: 122 µM (active)

SMILES: Cn1c(S)nnc1CNS(=O)(=O)c1ccc(Cl)cc1
- AC50 [3]: 15.8 µM (inconclusive)

SMILES: CCOC(=O)c1nc(S)n(Cc2ccccc2)c1C(=O)OCC
- IC50 [2]: 49.6 µM (active)

SMILES: CC(NC(=O)c1ccc(Cl)cc1)c1nnc(SCc2ccc([N+](=O)[O-])cc2)n1C (stereo not drawn)
- AC50 [3]: 8.91 µM (inconclusive)
- AC50 [7]: 15.8 µM (inconclusive)
- AC50 [4]: 28.2 µM (inconclusive)
- AC50 [8]: 39.8 µM (inconclusive)

SMILES: O=C(O)CC1SC(Nc2ccc(O)cc2)=NC1=O (stereo not drawn)
- IC50 [2]: 118 µM (active)

SMILES: Cc1c(/C=N/NC(=O)c2cc(O)nc(O)n2)c2ccccn2c1C(=O)c1ccccc1
- EC50 [5]: > 300 µM (not active)
- EC50 [6]: > 300 µM (inconclusive)

SMILES: CCOc1cccc2cc(C(N)=O)/c(=N/Cc3ccccc3)oc12
- AC50 [3]: 14.1 µM (inconclusive)

SMILES: COc1ccc(NC2CCCN(C(=O)c3ccccc3-c3ncc[nH]3)C2)cc1 (stereo not drawn)
- IC50 [2]: 146 µM (active)

SMILES: CN(C)CCO/N=C(\c1ccc(Br)cc1)c1cccnc1
- IC50 [2]: 141 µM (active)

SMILES: COC(=O)c1ccc(C2Nc3ccc(/C(C)=N/NC(=O)C(OC)c4ccccc4)cc3C3C=CCC32)cc1 (stereo not drawn)
- EC50 [5]: > 300 µM (not active)
- EC50 [6]: 35.2 µM (active)

SMILES: CC1(C)CC(=O)C(/C=N/c2ccc(N)cc2)=C(O)C1
- IC50 [2]: 46.9 µM (active)

SMILES: O=[N+]([O-])c1ccc(/N=C/C=C(\O)c2ccc(Br)cc2)cc1
- EC50 [5]: > 300 µM (not active)
- EC50 [6]: > 300 µM (not active)

SMILES: COc1cc(/C=N/n2c(C)nc3ccccc3c2=O)ccc1O
- IC50 [2]: 48.5 µM (active)

SMILES: Cc1noc(NS(=O)(=O)c2cccc3c(N(C)C)cccc23)c1C [BMS-182874]
- AC50 [3]: 20 µM (inconclusive)

SMILES: CCCCN1CCCC[C@H]1C(=O)Nc1c(C)cccc1C [LEVOBUPIVACAINE]
- AC50 [3]: 10 µM (inconclusive)
